The structures appear in SMILES notation. Read-outs that look alike come from different tables or passages of the source. Starred links: 1 amine or outer side, 2 acyl side, 3 side chain; linkers in the order of their positions; H or OH if unused. Positions of bridges follow the written chain, without caps; N, C: chain ends. Non-standard residues stand in square brackets, D forms with d. Residues, ends and D or L forms follow the SMILES beside them. Groups on a side chain read outwards from the residue. *: point of attachment. Trp(1-Me) = Cn1cc(C[C@H](N)C(=O)O)c2ccccc21; Abu(4-yl) = O=C([C@H](CC[*:3])N[*:1])[*:2]; C18 diacid = O=C(O)CCCCCCCCCCCCCCCCC(=O)*; C16 diacid = O=C(O)CCCCCCCCCCCCCCC(=O)*; γGlu = O=C(O)[C@H](CCC(=O)[*:2])N[*:1]; AEEA = NCCOCCOCC(=O)O; Aoc = NCCCCCCCC(=O)O; Sar = CNCC(=O)O

These results are taken from patent US20220306695A1, “COMPSTATIN ANALOGUES AND THEIR MEDICAL USES” (priority 2019, published 2022).

In this assay the test system is classical complement pathway. The assay is described as follows: In vitro haemolysis assay (inhibition of classical complement pathway). In kind it is cell-based, human. A digest of the protocol: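 Serially diluted compound (9 points) was preincubated 15 min at room temperature with diluted human serum, titrated per batch to give 70-90% maximal haemolysis, in Tris/casein buffer pH 7.4 with Mg2+/Ca2+. Antibody-sensitized sheep erythrocytes were then added for 30 min at 37° C, and the reaction was stopped with EDTA. Haemolysis was read at A405, with IC50 from 4PL fit.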

[1] abbreviates: Table 3, human serum, sensitized sheep red blood cells, read-out: IC50[nM], in vitro analysis of inhibition of hemolysis.
Where [2] appears, read: Table 4, valine 3 versus isoleucine 3 pairs, read-out: CP hemolysis IC50.

A word on the IC50: it is the point on the concentration scale where inhibition reaches its midpoint. For the molecule `CC[C@H](C)[C@H](NC(C)=O)C(=O)N[C@H]1CSSC[C@@H](C(=O)N[C@H](C(N)=O)[C@@H](C)O)NC(=O)[C@H](CCCNC(=N)N)NC(=O)[C@H](Cc2c[nH]cn2)NC(=O)[C@H](CCC(=O)O)NC(=O)CNC(=O)[C@H](Cc2c[nH]c3ccccc23)NC(=O)[C@H](CCC(=O)O)NC(=O)[C@H](CCC(N)=O)NC(=O)[C@H](Cc2c[nH]c3ccccc23)NC(=O)[C@H]([C@@H](C)CC)NC1=O` [Compound 16] (Ac-ICIWQEWGEHRCT-NH2; disulfide 2-12), the IC50 under setting [1] is under 100 nM.

On to `CC[C@H](C)[C@H](NC(=O)[C@H](C)NC(=O)[C@H](CO)NC(=O)[C@H](CO)NC(=O)[C@H](CCC(=O)O)NC(C)=O)C(=O)N[C@H]1CSSC[C@@H](C(=O)N[C@H](C(N)=O)[C@@H](C)O)NC(=O)[C@H](CCCNC(=N)N)NC(=O)[C@H](Cc2c[nH]cn2)NC(=O)[C@H](CCC(=O)O)NC(=O)CNC(=O)[C@H](Cc2c[nH]c3ccccc23)NC(=O)[C@H](CC(=O)O)NC(=O)[C@H](CCC(N)=O)NC(=O)[C@H](Cc2c[nH]c3ccccc23)NC(=O)[C@H](C(C)C)NC1=O` [C, reference compound] (Ac-ESSAICVWQDWGEHRCT-NH2; disulfide 6-16), for which the IC50 under setting [2] stood at 300 nM.

As to `CC[C@H](C)[C@@H]1NC(=O)[C@@H](NC(=O)[C@H](Cc2ccc(O)cc2)NC(=O)[C@H](C)NC(=O)[C@H](CO)NC(=O)[C@H](CO)NC(=O)[C@H](CCC(=O)O)NC(C)=O)CSSC[C@@H](C(=O)N[C@H](C(N)=O)[C@@H](C)O)NC(=O)[C@H](CCCNC(=N)N)NC(=O)[C@H](Cc2c[nH]cn2)NC(=O)[C@H](CCC(=O)O)NC(=O)CNC(=O)[C@H](Cc2c[nH]c3ccccc23)NC(=O)[C@H](CC(=O)O)NC(=O)[C@H](CCC(N)=O)NC(=O)[C@H](Cc2c[nH]c3ccccc23)NC1=O` [Compound 10] (Ac-ESSAYCIWQDWGEHRCT-NH2; disulfide 6-16), the IC50 under setting [1] was under 100 nM.

For the molecule `CC[C@H](C)[C@@H]1NC(=O)[C@@H](NC(=O)[C@H](Cc2ccccc2)NC(=O)[C@H](CCC(=O)O)NC(=O)[C@H](CO)NC(C)=O)CCSC[C@@H](C(=O)N(C)CC(=O)N[C@@H](CCC(=O)O)C(=O)NCCOCCOCC(=O)NCCOCCOCC(=O)N[C@@H](CCCCNC(=O)CC[C@H](NC(=O)CNC(=O)CC[C@H](NC(=O)CCCCCCCCCCCCCCCCC(=O)O)C(=O)O)C(=O)O)C(N)=O)NC(=O)[C@H](CCCNC(=N)N)NC(=O)[C@H](Cc2c[nH]cn2)NC(=O)[C@H](CCC(=O)O)NC(=O)CN(C)C(=O)[C@H](Cc2c[nH]c3ccccc23)NC(=O)[C@H](CC(=O)O)NC(=O)[C@H](CCC(N)=O)NC(=O)[C@H](Cc2cn(C)c3ccccc23)NC1=O` [Compound 164, Ac-SEFhC(1)I[1-Me-Trpp]QDW[Sar]EHRA(1)[Sar]E[Peg3][Peg3]-K([17-carboxy-heptadecanoyl][γGlu]G[γGlu])-NH2] (Ac-SEF[Abu(4-yl)]I[Trp(1-Me)]QDW[Sar]EHRC[Sar]E[AEEA][AEEA]K([γGlu-Gly-γGlu-C18 diacid])-NH2; thioether 4-14), under setting [1], the IC50 is under 100 nM.

On to `CC[C@H](C)[C@H](NC(=O)[C@H](C)NC(=O)[C@H](CO)NC(=O)CNC(=O)[C@H](CCC(=O)O)NC(C)=O)C(=O)N[C@H]1CSSC[C@@H](C(=O)N(C)CC(=O)N[C@@H](CCC(=O)O)C(N)=O)NC(=O)[C@H](CCCNC(=N)N)NC(=O)[C@H](Cc2c[nH]cn2)NC(=O)[C@H](CCC(=O)O)NC(=O)CNC(=O)[C@H](Cc2c[nH]c3ccccc23)NC(=O)[C@H](CC(=O)O)NC(=O)[C@H](CCC(N)=O)NC(=O)[C@H](Cc2c[nH]c3ccccc23)NC(=O)[C@H](C(C)C)NC1=O` [H, reference compound] (Ac-EGSAICVWQDWGEHRC[Sar]E-NH2; disulfide 6-16), for which the IC50 under setting [2] worked out at 330 nM.

Take `CCCC[C@H](N)C(=O)O` [Norleucine, reference compound]: the IC50 (Table 5, different residues at position 3 of Ac-IC(1)[…](1)T-NH2, read-out: IC50, CP hemolysis) was 480 nM.

In the case of `CC[C@H](C)[C@@H]1NC(=O)[C@@H](NC(=O)CN(C)C(=O)[C@H](CCC(=O)O)NC(=O)[C@H](CO)NC(C)=O)CSSC[C@@H](C(=O)N[C@H](C(=O)N[C@@H](CCC(=O)O)C(=O)N[C@@H](C)C(N)=O)[C@@H](C)O)NC(=O)[C@H](CCCNC(=N)N)NC(=O)[C@H](Cc2c[nH]cn2)NC(=O)[C@H](CCC(=O)O)NC(=O)CN(C)C(=O)[C@H](Cc2c[nH]c3ccccc23)NC(=O)[C@H](CCC(=O)O)NC(=O)[C@H](CCC(N)=O)NC(=O)[C@H](Cc2cn(C)c3ccccc23)NC1=O` [Compound 89, Ac-SE[Sar]C(1)I[1-Me-Trp]QEW[Sar]EHRC(1)TEA-NH2] (Ac-SE[Sar]CI[Trp(1-Me)]QEW[Sar]EHRCTEA-NH2; disulfide 4-14), the half-maximal inhibitory concentration (IC50) under setting [1] was under 100 nM.

Regarding `CC[C@H](C)[C@@H]1NC(=O)[C@@H](NC(=O)[C@H](Cc2ccccc2)NC(=O)[C@H](CCC(=O)O)NC(=O)[C@H](CO)NC(C)=O)CSSC[C@@H](C(=O)N[C@H](C(=O)N[C@@H](CCC(=O)O)C(=O)NCC(=O)N[C@@H](CCC(=O)O)C(=O)NCCCCCCCC(=O)N[C@@H](CCCCNC(=O)CC[C@H](NC(=O)CNC(=O)CC[C@H](NC(=O)CCCCCCCCCCCCCCCCC(=O)O)C(=O)O)C(=O)O)C(N)=O)[C@@H](C)O)NC(=O)[C@H](CCCNC(=N)N)NC(=O)[C@H](Cc2c[nH]cn2)NC(=O)[C@H](CCC(=O)O)NC(=O)CNC(=O)[C@H](Cc2c[nH]c3ccccc23)NC(=O)[C@H](CC(=O)O)NC(=O)[C@H](CCC(N)=O)NC(=O)[C@H](Cc2cn(C)c3ccccc23)NC1=O` [Compound 136] (Ac-SEFCI[Trp(1-Me)]QDWGEHRCTEGE[Aoc]K([γGlu-Gly-γGlu-C18 diacid])-NH2; disulfide 4-14), the IC50 under setting [1] was under 100 nM.

Regarding `CC[C@H](C)[C@@H]1NC(=O)[C@@H](NC(=O)CN(C)C(=O)[C@H](CCC(=O)O)NC(=O)CNC(C)=O)CSSC[C@@H](C(=O)N[C@H](C(=O)N[C@@H](CCC(=O)O)C(=O)N[C@@H](C)C(N)=O)[C@@H](C)O)NC(=O)[C@H](CCCNC(=N)N)NC(=O)[C@H](Cc2c[nH]cn2)NC(=O)[C@H](CCC(=O)O)NC(=O)CNC(=O)[C@H](Cc2c[nH]c3ccccc23)NC(=O)[C@H](CC(=O)O)NC(=O)[C@H](CCC(N)=O)NC(=O)[C@H](Cc2cn(C)c3ccccc23)NC1=O` [Compound 88] (Ac-GE[Sar]CI[Trp(1-Me)]QDWGEHRCTEA-NH2; disulfide 4-14), the IC50 under setting [1] is under 100 nM.

Regarding `CC[C@H](C)[C@H](NC(C)=O)C(=O)N[C@H]1CSSC[C@@H](C(=O)N[C@H](C(=O)NCC(=O)N[C@@H](C)C(=O)N[C@@H](CCC(=O)O)C(=O)N[C@@H](CO)C(N)=O)[C@@H](C)O)NC(=O)[C@H](CCCNC(=N)N)NC(=O)[C@H](Cc2c[nH]cn2)NC(=O)[C@H](C)NC(=O)CNC(=O)[C@H](Cc2c[nH]c3ccccc23)NC(=O)[C@H](CCCCN)NC(=O)[C@H](CCC(N)=O)NC(=O)[C@H](Cc2c[nH]c3ccccc23)NC(=O)[C@H]([C@@H](C)CC)NC1=O` [Compound 8] (Ac-ICIWQKWGAHRCTGAES-NH2; disulfide 2-12), the half-maximal inhibitory concentration (IC50) under setting [1] was under 500 nM.

For `CC[C@H](C)[C@H](NC(C)=O)C(=O)N[C@H]1CSSC[C@@H](C(=O)N[C@H](C(=O)N[C@@H](CCC(=O)O)C(=O)NCC(=O)N[C@@H](CCCCNC(=O)CC[C@H](NC(=O)CCCCCCCCCCCCCCC(=O)O)C(=O)O)C(N)=O)[C@@H](C)O)NC(=O)[C@H](CCCNC(=N)N)NC(=O)[C@H](Cc2c[nH]cn2)NC(=O)[C@H](CCC(=O)O)NC(=O)CNC(=O)[C@H](Cc2c[nH]c3ccccc23)NC(=O)[C@H](CC(=O)O)NC(=O)[C@H](CCC(N)=O)NC(=O)[C@H](Cc2c[nH]c3ccccc23)NC(=O)[C@H]([C@@H](C)CC)NC1=O` [Compound 92] (Ac-ICIWQDWGEHRCTEGK([γGlu-C16 diacid])-NH2; disulfide 2-12), the IC50 under setting [1] is under 1000 nM.

In the case of `CC[C@H](C)[C@H](NC(C)=O)C(=O)N[C@H]1CSSC[C@@H](C(=O)N[C@H](C(N)=O)[C@@H](C)O)NC(=O)[C@H](CO)NC(=O)[C@H](Cc2c[nH]cn2)NC(=O)[C@H](CCC(=O)O)NC(=O)CNC(=O)[C@H](Cc2c[nH]c3ccccc23)NC(=O)[C@H](CC(=O)O)NC(=O)[C@H](CCC(N)=O)NC(=O)[C@H](Cc2c[nH]c3ccccc23)NC(=O)[C@H](C(C)C)NC1=O` [F, reference compound] (Ac-ICVWQDWGEHSCT-NH2; disulfide 2-12), the half-maximal inhibitory concentration (IC50) under setting [2] worked out at 540 nM.

Consider `CC[C@H](C)[C@@H]1NC(=O)[C@@H](NC(=O)[C@H](Cc2ccc(O)cc2)NC(=O)[C@H](CCC(=O)O)NC(=O)[C@H](CO)NC(C)=O)CSSC[C@@H](C(=O)N(C)CC(=O)N[C@@H](CCC(=O)O)C(=O)NCC(=O)N[C@@H](CCC(=O)O)C(=O)NCCOCCOCC(=O)NCCOCCOCC(=O)N[C@@H](CCCCNC(=O)CC[C@H](NC(=O)CNC(=O)CC[C@H](NC(=O)CCCCCCCCCCCCCCCCC(=O)O)C(=O)O)C(=O)O)C(N)=O)NC(=O)[C@H](CCCNC(=N)N)NC(=O)[C@H](Cc2c[nH]cn2)NC(=O)[C@H](CCC(=O)O)NC(=O)CNC(=O)[C@H](Cc2c[nH]c3ccccc23)NC(=O)[C@H](CCC(=O)O)NC(=O)[C@H](CCC(N)=O)NC(=O)[C@H](Cc2cn(C)c3ccccc23)NC1=O` [Compound 125] (Ac-SEYCI[Trp(1-Me)]QEWGEHRC[Sar]EGE[AEEA][AEEA]K([γGlu-Gly-γGlu-C18 diacid])-NH2; disulfide 4-14), for which the IC50 under setting [1] is under 500 nM.

Regarding `CC[C@H](C)[C@H](NC(=O)CNC(=O)[C@H](CCCCN)NC(=O)[C@H](CCC(=O)O)NC(C)=O)C(=O)N[C@H]1CSSC[C@@H](C(=O)N[C@H](C(=O)N[C@@H](CCC(=O)O)C(=O)N[C@@H](CCCCN)C(=O)N2CCC[C@H]2C(N)=O)[C@@H](C)O)NC(=O)[C@H](CCCNC(=N)N)NC(=O)[C@H](Cc2c[nH]cn2)NC(=O)[C@H](CCC(=O)O)NC(=O)CNC(=O)[C@H](Cc2c[nH]c3ccccc23)NC(=O)[C@H](CC(=O)O)NC(=O)[C@H](CCC(N)=O)NC(=O)[C@H](Cc2c[nH]c3ccccc23)NC(=O)[C@H]([C@@H](C)CC)NC1=O` [Compound 38] (Ac-EKGICIWQDWGEHRCTEKP-NH2; disulfide 5-15), the IC50 under setting [1] was under 250 nM.
